# Test results as given in patent publication US20230364084A1, “METHODS FOR PREVENTING OR TREATING CONDITIONS RELATED TO PIKFYVE ACTIVITY” (The Regents of the University of Michigan, priority 2020, published 2023).
# How the values were obtained:
# DU145 cells = assay: cellular vacuolization morphology with autophagy inhibitors; type: cell-based, human; conditions: combination with ESK981, six hours
# Text: The nature of the ESK981-associated cellular vacuolization was investigated in combination with various autophagic pathway inhibitors.
# CXCL10 in VCaP cells = assay: human CXCL10 ELISA of conditioned medium; type: cell-based; conditions: VCaP cells, 24 hours
# Method: Conditioned medium was collected after 24 hours of drug incubation. ELISA was performed using a human CXCL10 ELISA kit (Cat No. KAC2361, ThermoFisher), or a mouse CXCL10 ELISA kit (Cat No. ab214563, Abcam) according to the manufacturer's instructions.
# PC3 and DU145 cells = assay: autophagic flux detection (GFP-LC3-RFP-LC3ΔG probe); type: cell-based, human; conditions: PC3 or DU145 cells, 24 hours
# Method: (§1) For autophagic flux detection, 10,000 cells were plated in 96-well plates and incubated with various compounds in complete medium for 24 hours. GFP and RFP fluorescence intensities were measured on a TECAN M1000 plate reader.
# [1] = test system: B cell non-Hodgkin's lymphoma; conditions: cited from earlier work
# [2] = test system: GFP-LC3-RFP-LC3ΔG-expressing Myc-CaP cells; assay: autophagic flux detection in Myc-CaP cells; type: cell-based, mouse; conditions: 24 hours
# Method: as §1
# [3] = test system: lysosomes in VCaP, LNCaP, PC3 and DU145 cells; assay: LysoTracker Green flow cytometry; type: cell-based, human; conditions: bafilomycin A1 100 nM with ESK981 300 nM, 24 hours
# Method: Cells were grown in 6-well plates and treated with various drugs. After 24 hours, cells were stained with LysoTracker® Green DND-26 (Invitrogen), and green fluorescence signal was analyzed by flow cytometry.
# [4] = test system: DU145 prostate cancer cells; assay: cell viability screen with a 167-compound tyrosine kinase inhibitor library; type: cell-based, human; conditions: 300 nM
# Method: FIG. 1: ESK981 inhibits the growth of diverse preclinical models of prostate cancer and is associated with a unique vacuolization morphology. • (a) The percentage viabilities of DU145 cells treated with 300 nM ESK981 or 167 other tyrosine kinase inhibitors when compared to a vehicle control. The top five most inhibitory compounds, as well as cabozantinib and crizotinib (highlighted in orange), and their respective targets are listed in the table. ESK981 is highlighted in red. • (b) Morphological differences of nuclear-restricted RFP-expressing DU145 cells treated with 300 nM ESK981, crizotinib, or cabozantinib. • (c) A long-term survival assay was used to calculate the half-maximum inhibitory concentration (IC50) after two weeks of incubation with the serial dilutions of indicated drugs. (Top) Long-term survival assays of VCaP prostate cancer cells exposed to MTKIs. (Bottom) IC50 of ESK981, crizotinib, and cabozantinib in a panel of prostate cancer cell lines. • (d) ESK981 was effective against enzalutamide (Enza)-resistant cell lines. […] Long-term survival (two weeks) was assayed by absorbance of crystal violet at OD590. • (e) VCaP-RFP cells were cultured for three days in ultralow attachment plates to form 3D tumor spheroids prior to the indicated drug treatments. […] Fluorescence intensity of 3D spheroids was measured by IncuCyte ZOOM. • (f) Castration-resistant VCaP tumors were established subcutaneously in castrated SCID mice, and mice were randomized into three groups, which received vehicle, 30 mg/kg, or 60 mg/kg ESK981 by oral gavage once per day for the indicated dosing schedule. Tumor volumes were monitored by a digital caliper twice per week. Data were analyzed by unpaired t test and presented as mean±SEM. *p<0.05; **p<0.01. • (g) AR^+ prostate patient-derived xenograft (PDX) MDA-PCa-146-12 were implanted subcutaneously in non-castrated SCID mice, and mice were randomized into two groups receiving either once daily vehicle or 30 mg/kg ESK981 for five days each week. […] Tumor volumes were monitored twice per week. […]
# [5] = test system: LC3-II in prostate cancer cell lines; assay: LC3 lipidation western blot; type: cell-based, human; conditions: VCaP cells, 24 hours
# Method: Cell lysates were harvested in Pierce RIPA Lysis buffer (Thermo Scientific) containing protease inhibitor cocktail tablets (Roche) and phosphatase inhibitor cocktail (Millipore). Protein concentration was measured using the DC Protein Assay (Bio-Rad) to ensure an equal amount of protein was loaded onto a gel. The denatured lysates were separated on NuPage 4-12% Bis-Tris Midi Protein gels (Novex) and transferred to 0.45-μm PVDF transfer membrane (Immobilon) using a TransBlot Turbo dry transfer machine (Bio-Rad). The membrane was incubated in blocking buffer (5% non-fat dry milk, Tris-buffered saline with 0.1% Tween 20) for 1 hour at room temperature. The membrane was then incubated with the listed antibodies for 1 hour at room temperature, followed by overnight incubation at 4° C. Chemiluminescent detection using ECL Prime (Amersham) and HyBlot CL autoradiography film (Denville Scientific) was used to visualize the blots. Antibodies used in the immunoblotting assays were against ATG5 (Cat No. 12994S, Cell Signaling Technology), ATG7 (Cat No. 8558S, Cell Signaling Technology), ULK1 (Cat No. 8054S, Cell Signaling Technology), Beclin1 (Cat No. 4122S, Cell Signaling Technology), FIP200 (Cat No. 12436S, Cell Signaling Technology), LC3A/B (Cat No. 127415, Cell Signaling Technology), PIKfyve (Cat No. AF7885, R&D Systems), and GAPDH (Cat No. 3683S, Cell Signaling Technology).
# [6] = test system: prostate cancer cell lines (VCaP, LNCaP, 22RV1, LNCaP-AR, PC3, DU145); assay: long-term survival assay (14 days, crystal violet); type: cell-based, human; conditions: panel of prostate cancer cell lines, two weeks
# Method: Single cell suspensions were seeded into 96-well plates at a density of 1,000-30,000 cells per well. Long-term survival was determined after 14 days of drug incubation. Viable cells were fixed with 4% formaldehyde and subsequently stained with 1% crystal violet. IC50 was calculated using GraphPad Prism.
# advanced prostate cancer = conditions: two phase III trials; cited from earlier work
# metastatic CRPC (mCRPC) = conditions: men with metastatic CRPC; cited from earlier work
molecule,measurement,setting,value
Cn1cnc(N)c2ncnc1-2 [3-methyladenine],effect on the cellular vacuolization effects of ESK981,DU145 cells,partially negated
CCC(=O)N1CCN(c2ccc(-n3c(=O)ccc4cnc5ccc(-c6cnc7ccccc7c6)cc5c43)cc2C(F)(F)F)CC1 [Torin1],CXCL10 induction / secretion,CXCL10 in VCaP cells,"marginally increased CXCL10 secretion, but only at higher concentrations"
same,autophagic flux (GFP/RFP ratio),PC3 and DU145 cells,decreased the GFP/RFP ratio
Cc1cccc(/C=N/Nc2cc(N3CCOCC3)nc(OCCc3ccccn3)n2)c1 [apilimod],tumor inhibition,[1],tumor inhibitory effects
CO/C1=C\C(C)=C\[C@@H](C)[C@@H](O)[C@@H](C)C/C(C)=C/C=C/[C@H](OC)[C@@H]([C@@H](C)[C@@H](O)[C@H](C)[C@@]2(O)C[C@@H](O)[C@H](C)[C@@H](C(C)C)O2)OC1=O [bafilomycin A1],autophagic flux,[2],inhibited
same,effect on the cellular vacuolization effects of ESK981,DU145 cells,completely blocked
same,effect on the ESK981-increased lysosome quantity,[3],readily neutralized
same,autophagic flux (GFP/RFP ratio),PC3 and DU145 cells,low autophagic flux
CCN(CC)CCCC(C)Nc1ccnc2cc(Cl)ccc12 (centres unmarked) [chloroquine],autophagic flux,[2],inhibited
same,effect on the cellular vacuolization effects of ESK981,DU145 cells,completely blocked
"C[C@@H](Oc1cc(-c2cnn(C3CCNCC3)c2)cnc1N)c1c(Cl)ccc(F)c1Cl [crizotinib, reference compound]",growth inhibition (cell viability),[4],no such growth inhibitory effects
same,induction of LC3-II,[5]; 300 nM,did not induce an increase in LC3-II
same,induction of LC3-II,[5]; 1 μM,only weakly induced an increase in LC3-II
same,IC50 in words,[6],micromolar
Nc1ccn([C@@H]2O[C@H](CO)[C@@H](O)C2(F)F)c(=O)n1 [gemcitabine],CXCL10 induction / secretion,CXCL10 in VCaP cells,robust CXCL10 inducer
ipilimumab: CTLA4 inhibitor,overall survival,advanced prostate cancer,failed to improve overall survival
pembrolizumab: PD-1 inhibitor,response rates,metastatic CRPC (mCRPC),3-5%
